For 9 compounds, TGI and GI50 results are on record in PubChem BioAssay (NCI).

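Assay format: 96-well plates, 48-hour exposure. GI50 is the concentration that inhibits growth by half. TGI: total growth inhibition.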 Where only a bound is given, the exact number is not on record here.

Among the test systems are KM12 colon; UACC-62 melanoma; HCT-116 colon; SK-MEL-5 melanoma; U251 CNS; SN12C renal; 786-0 renal; SNB-75 CNS; SNB-19 CNS; HCC-2998 colon.
What all share (experiment): inhibition of tumour cell growth, NCI panel, 48 h

With `O=C(O)C1Cc2nc[nH]c2CN1` (stereo not given), the TGI in the test on KM12 colon, with UACC-62 melanoma, in the test with HCT-116 colon, in the test on SK-MEL-5 melanoma, in the test with U251 CNS and with SN12C renal was over 100 µM throughout. Besides, the TGI with 786-0 renal, in the test on SNB-75 CNS, with SNB-19 CNS and in the test on HCC-2998 colon was over 100 µM each time.
Turning to `C=C(CO)CC(O)c1ccccc1` (stereo not given), the TGI with KM12 colon, in the test with UACC-62 melanoma, with HCT-116 colon, with SK-MEL-5 melanoma, in the test with U251 CNS and in the test on SN12C renal was over 100 µM throughout. Further, the TGI in the test with 786-0 renal, in the test on SNB-75 CNS, in the test with SNB-19 CNS and with HCC-2998 colon was over 100 µM each time.
Regarding `O=C(Nc1ccc(-n2cc(-c3ccncc3)c(-c3ccc(Cl)c(O)c3)n2)cc1)c1cc(Cl)cc(Cl)c1`, the GI50 in the test on KM12 colon was 2.72 µM; in the test with UACC-62 melanoma, 2.96 µM; in the test on HCT-116 colon it was 2.69 µM; with SK-MEL-5 melanoma, 1.46 µM; in the test on U251 CNS, 3.93 µM; in the test with SN12C renal it was over 100 µM. Also, the GI50 with 786-0 renal was 1.53 µM; with SNB-75 CNS, 2.79 µM; with SNB-19 CNS it was over 36.2 µM; in the test with HCC-2998 colon it was 3.41 µM. Besides, the TGI is over 29.4 µM in the test on KM12 colon; over 28.1 µM in the test with UACC-62 melanoma; over 100 µM in the test with HCT-116 colon; 2.93 µM in the test with SK-MEL-5 melanoma; over 100 µM in the test with U251 CNS; over 100 µM in the test on SN12C renal. In addition, the TGI in the test on 786-0 renal was 4.23 µM; in the test with SNB-75 CNS, over 100 µM; with SNB-19 CNS it was over 100 µM; in the test with HCC-2998 colon it was over 23.6 µM.
Turning to `CCOC(=O)c1c(C)c2c(n1C)CSc1cc(S(=O)(=O)c3ccccc3)c(=O)[nH]c1-2`, the GI50 is 28.8 µM with KM12 colon; 14.2 µM in the test on UACC-62 melanoma; 22.7 µM in the test with HCT-116 colon; 13.2 µM in the test on SK-MEL-5 melanoma; 28.4 µM in the test on U251 CNS; 27.6 µM in the test with SN12C renal. In addition, the GI50 in the test with 786-0 renal is 35.1 µM; in the test with SNB-75 CNS it was 42.7 µM; with SNB-19 CNS, 26.9 µM; in the test with HCC-2998 colon, 35.2 µM. In addition, the TGI is over 100 µM with KM12 colon; 69.1 µM in the test on UACC-62 melanoma; 86.9 µM in the test on HCT-116 colon; 29.6 µM with SK-MEL-5 melanoma; over 100 µM in the test with U251 CNS; over 100 µM with SN12C renal. Also, the TGI in the test on 786-0 renal, with SNB-75 CNS, in the test on SNB-19 CNS and with HCC-2998 colon was over 100 µM throughout.
With `O=C(N/N=C/c1cc2ccccc2c2ccccc12)c1cc(O)c(O)c(O)c1`, the GI50 with KM12 colon is 8.24 µM; in the test on UACC-62 melanoma, 2.75 µM; in the test on HCT-116 colon, 3.17 µM; with SK-MEL-5 melanoma, 2.9 µM; in the test on U251 CNS it was 2.96 µM; in the test on SN12C renal, 4.99 µM. The GI50 in the test on 786-0 renal is 2.77 µM; with SNB-75 CNS, 2.1 µM; in the test on SNB-19 CNS, 3.6 µM; with HCC-2998 colon it was 8.54 µM. The TGI in the test with KM12 colon amounted to 22.9 µM; with UACC-62 melanoma it was 9.4 µM; with HCT-116 colon, 12.4 µM; in the test with SK-MEL-5 melanoma it was 10.6 µM; with U251 CNS it was 14 µM; with SN12C renal it was 30 µM. Moreover, the TGI in the test with 786-0 renal turned out to be 7.2 µM; in the test with SNB-75 CNS it was 14.3 µM; with SNB-19 CNS it was 18.7 µM; in the test with HCC-2998 colon it was 22.4 µM.
Turning to `CC1=COC2=C(C)C(=O)C(=O)c3c(C)ccc1c32`, the TGI in the test on KM12 colon was 26.4 µM; in the test with UACC-62 melanoma, 11.9 µM; in the test with HCT-116 colon it was 20.6 µM; in the test on SK-MEL-5 melanoma it was 3.26 µM; with U251 CNS, over 44.7 µM; in the test on SN12C renal, 14.1 µM. In addition, the TGI in the test on 786-0 renal is 19.6 µM; in the test on SNB-75 CNS, 42.6 µM; in the test with SNB-19 CNS it was over 40.5 µM; in the test with HCC-2998 colon, 19.6 µM.
Turning to `COc1cc(/C=C2\C(=O)N(c3c(Cl)cccc3Cl)c3ccccc32)cc(OC)c1O`, the GI50 in the test on KM12 colon was 0.654 µM; in the test with UACC-62 melanoma it was 0.594 µM; in the test on HCT-116 colon, 0.292 µM; in the test with SK-MEL-5 melanoma, 0.375 µM; in the test with U251 CNS, 0.315 µM; in the test on SN12C renal, 1.01 µM. The GI50 was 1.49 µM in the test on 786-0 renal, 1.03 µM with SNB-75 CNS, 0.742 µM with SNB-19 CNS and 3.3 µM with HCC-2998 colon. The TGI with KM12 colon worked out at 2.69 µM; in the test on UACC-62 melanoma, 13.2 µM; in the test on HCT-116 colon it was 4.83 µM; in the test with SK-MEL-5 melanoma it was 6.26 µM; in the test with U251 CNS it was 13.5 µM; with SN12C renal it was 17.6 µM. Moreover, the TGI was 17.4 µM with 786-0 renal, 17 µM with SNB-75 CNS, 19.3 µM in the test with SNB-19 CNS and 17.7 µM with HCC-2998 colon.
Consider `Cc1cccc(NC(=O)CC2C(=O)Nc3ccccc3S2(=O)=O)c1C` (stereo not given), for which the TGI was over 100 µM with KM12 colon; 46.3 µM with UACC-62 melanoma; 33.1 µM in the test on HCT-116 colon; 74.1 µM with SK-MEL-5 melanoma; 78.1 µM in the test on U251 CNS; over 100 µM in the test on SN12C renal. For the same compound, the TGI with 786-0 renal was 76.1 µM; with SNB-75 CNS it was 41.6 µM; with SNB-19 CNS, over 100 µM; in the test with HCC-2998 colon, over 100 µM.
Consider `Oc1cccc(C2SCc3nc4ccccc4n32)c1` (stereo not given), for which the TGI with KM12 colon was over 100 µM; in the test with UACC-62 melanoma, over 100 µM; in the test with HCT-116 colon, over 100 µM; with SK-MEL-5 melanoma, 38.2 µM; in the test with U251 CNS it was over 100 µM; with SN12C renal it was over 100 µM. Moreover, the TGI with 786-0 renal, in the test with SNB-75 CNS, in the test with SNB-19 CNS and with HCC-2998 colon was over 100 µM throughout.
